Source: ChEMBL document CHEMBL1201862, “PubChem BioAssay data set” (2004)
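Protocol summary: plate cells (96-well), add compound at 5 concentrations, incubate 48 h, interpolate endpoints linearly. At the GI50, growth is halved.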 The source made the active and inactive calls. Cut-off read from the data, not from the text of the source: active = GI50 up to about 1.1 µM and inactive = higher.

Legend:
Assay in all cases: NCI tumour cell line growth inhibition, 48 h
[1] = system: HCC 2998
[2] = system: U-251
[3] = system: SF-539
[4] = system: OVCAR-8
[5] = system: SK-OV-3
[6] = system: ACHN
[7] = system: SW-620
[8] = system: MCF7
[9] = system: HCT-116
[10] = system: HOP-92
[11] = system: DU-145
[12] = system: CCRF-CEM
[13] = system: OVCAR-3
[14] = system: KM12
[15] = system: COLO 205
[16] = system: OVCAR-4
[17] = system: 786-0
[18] = system: A549
[19] = system: T47D
[20] = system: SN12C

Measured: GI50

Cc1nc(-c2cc3c(ccc4ccccc43)oc2=O)cc2c1c(=O)oc1ccc3ccccc3c12
inactive: [1] > 100 µM | [2] > 100 µM | [3] > 100 µM | [4] > 100 µM | [5] > 100 µM | [6] > 100 µM | [7] > 100 µM | [8] > 100 µM | [9] > 100 µM | [10] > 100 µM | [11] > 100 µM | [12] > 100 µM | [13] > 100 µM | [14] > 100 µM | [15] > 100 µM | [16] > 100 µM | [17] > 100 µM | [18] > 100 µM | [19] > 100 µM

NS(=O)(=O)c1cc(Br)c(/N=N\c2ccc(O)c3ncccc23)c(Br)c1
inactive: [2] 19.1 µM | [3] 25.9 µM | [4] 35.2 µM | [5] 47.8 µM | [6] 4.34 µM | [7] 34.8 µM | [8] 11.5 µM | [9] 26.7 µM | [10] 41.8 µM | [11] 47 µM | [12] 3.78 µM | [20] 22.3 µM | [13] 54.6 µM | [14] 37.8 µM | [15] > 100 µM | [16] 43.6 µM | [17] 23.6 µM | [18] 18.5 µM | [19] 39 µM

OCC1OC(NCCNCCNC2OC(CO)C(O)C(O)C2O)C(O)C(O)C1O (stereo unspecified)
inactive: [1] > 100 µM | [2] > 100 µM | [3] > 100 µM | [4] > 100 µM | [5] > 100 µM | [6] > 100 µM | [7] > 100 µM | [8] > 100 µM | [9] > 100 µM | [10] > 100 µM | [11] > 100 µM | [12] > 100 µM | [20] > 100 µM | [13] > 100 µM | [15] > 100 µM | [17] > 100 µM | [18] > 100 µM | [19] > 100 µM

CC(=O)N1C(OC(C)C)CC(C)N1c1ccccc1 (stereo unspecified)
inactive: [1] > 10 µM | [3] > 10 µM | [4] > 10 µM | [6] > 10 µM | [7] > 10 µM | [8] > 10 µM | [9] > 10 µM | [10] > 10 µM | [11] > 10 µM | [12] > 10 µM | [20] > 10 µM | [13] > 10 µM | [15] > 10 µM | [16] > 10 µM | [17] > 10 µM | [18] > 10 µM | [19] > 10 µM

O=S(=O)(O)c1ccc(Nc2ccnc3ccccc23)cc1
inactive: [1] > 100 µM | [2] > 100 µM | [3] > 100 µM | [4] > 100 µM | [5] > 100 µM | [6] > 100 µM | [7] > 100 µM | [8] > 100 µM | [9] > 100 µM | [10] > 100 µM | [11] > 100 µM | [12] > 100 µM | [20] > 100 µM | [14] > 100 µM | [15] > 100 µM | [16] > 100 µM | [17] > 100 µM | [18] > 100 µM | [19] > 100 µM

COc1ccc2c(c1)CC[C@@H]1[C@@H]2CC[C@]2(C)/C(=N/OCCN3CCCC3)CC[C@@H]12
inactive: [1] 1.85 µM | [2] 3.46 µM | [3] 1.9 µM | [4] 3.81 µM | [6] 4.45 µM | [7] 1.95 µM | [8] 3.03 µM | [9] 1.78 µM | [10] 2.49 µM | [11] 3.94 µM | [12] 1.49 µM | [20] 6.52 µM | [13] 5.82 µM | [14] 2.42 µM | [15] 1.67 µM | [16] 12 µM | [17] 1.75 µM | [18] 2.78 µM | [19] 3.21 µM
